Molecular target: PCSK9 (Homo sapiens, UniProt Q8NBP7)
Assay: BODIPY-LDL uptake assay in HepG2 cells
Type: cell-based
Conditions: 5 μg/ml PCSK9, BODIPY-LDL
Description: BODIPY-LDL Uptake Assay in HepG2 Cells.
An established assay for PCSK9 inhibition features uptake of fluorescently labeled LDL nanoparticles (BODIPY-LDL) by hepatocytes and uptake of the BODIPY-containing particles is maximized in the absence of PCSK9.
In the LDL uptake assay, HepG2 cells were seeded at a density of 6×10^4 cells/well in a 96-well plate. After 24 h, the test compounds at various concentrations were pre-incubated with 5 μg/ml PCSK9 in 0.2% DMSO for 60 min prior to the addition on to the cells. After 16 h the medium was removed and 1 μg/ml BODIPY-LDL (Invitrogen) in serum free media was added and incubated for 5 h. Then the cells were washed twice with 0.25% BSA in PBS. Then the fluorescence of the cells in PBS was measured using TECAN multimode reader (Excitation: 485 nm and Emission: 520 nm). The readings were taken in triplicate and the final values were normalized with the protein concentration from respective wells. The wells without test compound containing external PCSK9 is considered as zero uptake and the one without PCSK9 was considered as 100% uptake. The percentage increase in LDL uptake for the test compounds were calculated using these values.

Sequence of PCSK9 (Q8NBP7 153-692): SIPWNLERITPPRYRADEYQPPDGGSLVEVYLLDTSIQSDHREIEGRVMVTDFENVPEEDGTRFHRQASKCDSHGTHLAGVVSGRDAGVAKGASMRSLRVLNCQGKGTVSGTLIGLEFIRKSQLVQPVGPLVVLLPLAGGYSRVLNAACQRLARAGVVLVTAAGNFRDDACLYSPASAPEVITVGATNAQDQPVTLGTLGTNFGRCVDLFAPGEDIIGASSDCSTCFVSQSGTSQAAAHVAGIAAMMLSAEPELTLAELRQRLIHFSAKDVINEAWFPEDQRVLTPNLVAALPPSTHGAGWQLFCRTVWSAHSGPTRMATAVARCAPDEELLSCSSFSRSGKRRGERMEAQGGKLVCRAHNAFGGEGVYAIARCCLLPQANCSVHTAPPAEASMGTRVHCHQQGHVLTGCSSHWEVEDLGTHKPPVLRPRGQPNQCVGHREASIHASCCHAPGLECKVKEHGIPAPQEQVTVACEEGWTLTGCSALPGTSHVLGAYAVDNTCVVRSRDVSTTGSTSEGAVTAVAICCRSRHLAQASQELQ

| % increase in LDL Uptake (1 μM test compound) [%] | % increase in LDL Uptake (10 μM test compound) [%] | % increase in LDL Uptake (30 μM test compound) [%] | Structure (SMILES) |
| --- | --- | --- | --- |
| −2 | 39 | 34 | O=C(Nc1ccc(C2(O)COC2)cc1)C1CCN(c2ccc(C(F)(F)F)cc2)CC1 [Example 3, N-(4-(3-hydroxyoxetan-3-yl)phenyl)-1-(4-(trifluoromethyl)phenyl) piperidine-4-carboxamide] |
| 0 | 13 | 37 | O=C(O)c1cc(C2(O)COC2)ccc1N1CCC(c2ccc(C(F)(F)F)cc2)CC1 [Example 77, 5-(3-hydroxyoxetan-3-yl)-2-(4-(4-(trifluoromethyl)phenyl)piperidin-1-yl)benzoic acid] |
| 0 | 13 | 6 | O=C(c1ccc(C2(O)COC2)cc1)N1CCC(c2ccccc2)CC1 [Example 64, (4-(3-hydroxyoxetan-3-yl)phenyl)(4-phenylpiperidin-1-yl) methanone] |
| 2 | 70 | 0 | O=C(c1ccc(C2(O)CSC2)cc1)N1CCC(c2ccc(C(F)(F)F)cc2)CC1 [Example 145, (4-(3-hydroxythietan-3-yl)phenyl)(4-(4-(trifluoromethyl)phenyl)piperidin-1-yl)methanone] |
| 12 | 30 | 33 | O=C(c1ccc(C2(O)COC2)cc1)N1CCC(c2ccc(C(F)(F)F)c(Cl)c2)CC1 [Example 32, (4-(3-chloro-4-(trifluoromethyl)phenyl)piperidin-1-yl)(4-(3-hydroxyoxetan-3-yl)phenyl)methanone] |
| 0 | 14 | 30 | CCOC1(c2ccc(C(=O)N3CCCC(c4ccc(C(F)(F)F)cc4)C3)cc2)COC1 (stereo not drawn) [Example 123, (4-(3-ethoxyoxetan-3-yl)phenyl)(3-(4-(trifluoromethyl)phenyl)piperidin-1-yl)methanone] |
| 0 | 26 | 14 | CC#CCOC1(c2ccc(C(=O)N3CCC(c4ccc(C(F)(F)F)cc4)CC3)cc2)COC1 [Example 70, (4-(3-(but-2-yn-1-yloxy)oxetan-3-yl)phenyl)(4-(4-(trifluoromethyl)phenyl)piperidin-1-yl)methanone] |
| 20 | 3 | 11 | CCOC1(c2ccc(C(=O)N3CCC(c4ccc(C(F)(F)F)cc4)CC3)cc2)CSC1 [Example 148, (4-(3-ethoxythietan-3-yl)phenyl)(4-(4-(trifluoromethyl)phenyl)piperidin-1-yl)methanone] |
| 50 | 7 | 0 | COC1(c2ccc(NC(=O)C3CCN(c4ccc(C(F)(F)F)cc4)CC3)cc2)COC1 [Example 60, N-(4-(3-methoxyoxetan-3-yl)phenyl)-1-(4-(trifluoromethyl)phenyl) piperidine-4-carboxamide] |
| 38 | 58 | 77 | O=C(Nc1ccc(C2(O)COC2)cc1)N1CCC(c2ccc(C(F)(F)F)cc2)CC1 [Example 4, N-(4-(3-hydroxyoxetan-3-yl)phenyl)-4-(4-(trifluoromethyl)phenyl) piperidine-1-carboxamide] |
| 0 | 0 | 58 | O=C(c1ccc(C2(O)CNC2)cc1)N1CCC(c2ccc(C(F)(F)F)cc2)CC1 [Example 155, (4-(3-hydroxyazetidin-3-yl)phenyl)(4-(4-(trifluoromethyl)phenyl)piperidin-1-yl)methanone] |

The remaining lines, values behind:

| Structure (SMILES) | % increase in LDL Uptake (1 μM test compound) [%] | % increase in LDL Uptake (10 μM test compound) [%] | % increase in LDL Uptake (30 μM test compound) [%] |
| --- | --- | --- | --- |
| O=S(=O)(c1ccc(C2(O)COC2)cc1)N1CC2CN(c3ccc(C(F)(F)F)cc3)CC2C1 (stereo not drawn) [Example 98, 3-(4-((5-(4-(trifluoromethyl)phenyl)hexahydropyrrolo[3,4-c]pyrrol-2(1H)-yl)sulfonyl)phenyl)oxetan-3-ol] | 0 | 124 | 3 |
| COCCOC1(c2ccc(C(=O)N3CC4CN(c5ccc(C(F)(F)F)cc5)CC4C3)cc2)COC1 (stereo not drawn) [Example 137, (4-(3-(2-methoxyethoxy)oxetan-3-yl)phenyl)(5-(4-(trifluoromethyl)phenyl)hexahydropyrrolo[3,4-c]pyrrol-2(1H)-yl)methanone] | 0 | 66 | 116 |
| COC1(c2ccc(C(=O)N3CCC(c4ccc(C(F)(F)F)nc4)CC3)cc2)COC1 [Example 213, (4-(3-methoxyoxetan-3-yl)phenyl)(4-(6-(trifluoromethyl)pyridin-3-yl)piperidin-1-yl)methanone] | 0 | 0 | 37 |
| COC1(c2cccc(C(=O)N3CCCC(c4ccc(C(F)(F)F)cc4)C3)c2)COC1 (stereo not drawn) [Example 51, (3-(3-methoxyoxetan-3-yl)phenyl)(3-(4-(trifluoromethyl)phenyl)piperidin-1-yl)methanone] | 11 | 79 | 131 |
| CCOC1(c2ccc(C(=O)N3CC4CN(c5ccc(C(F)(F)F)cc5)CC4C3)cc2)CSC1 (stereo not drawn) [Example 150, (4-(3-ethoxythietan-3-yl)phenyl)(5-(4-(trifluoromethyl)phenyl)hexahydropyrrolo[3,4-c]pyrrol-2(1H)-yl)methanone] | 0 | 5 | 25 |
| O=C(c1ccc(C2(OCC3CC3)COC2)cc1)N1CC2CN(c3ccc(C(F)(F)F)cc3)CC2C1 (stereo not drawn) [Example 133, (4-(3-(cyclopropylmethoxy)oxetan-3-yl)phenyl)(5-(4-(trifluoromethyl)phenyl)hexahydropyrrolo[3,4-c]pyrrol-2(1H)-yl)methanone] | 22 | 28 | 32 |
| O=C(c1cccc(C2(O)COC2)c1)N1CC2CN(c3ccc(C(F)(F)F)cc3)CC2C1 (stereo not drawn) [Example 55, (3-(3-hydroxyoxetan-3-yl)phenyl)(5-(4-(trifluoromethyl)phenyl)hexahydropyrrolo[3,4-c]pyrrol-2(1H)-yl)methanone] | 82 | 320 | 287 |
| COC1(c2cccc(NC(=O)N3CC4CN(c5ccc(C(F)(F)F)cc5)CC4C3)c2)COC1 (stereo not drawn) [Example 183, N-(3-(3-methoxyoxetan-3-yl)phenyl)-5-(4-(trifluoromethyl)phenyl) hexahydropyrrolo[3,4-c]pyrrole-2(1H)-carboxamide] | 32 | 15 | 88 |
| CCOC1(c2ccc(C(=O)N3CC4=C(C3)CN(c3ccc(C(F)(F)F)cc3)C4)cc2)COC1 [Example 104, (4-(3-ethoxyoxetan-3-yl)phenyl)(5-(4-(trifluoromethyl)phenyl)-3,4,5,6-tetrahydropyrrolo[3,4-c]pyrrol-2(1H)-yl)methanone] | 1 | 30 | 18 |

From patent US20230089247A1, “NOVEL COMPOUNDS SUITABLE FOR THE TREATMENT OF DYSLIPIDEMIA” (ZYDUS LIFESCIENCES LIMITED, priority 2019, published 2023)
